From patent US5521196A, “5-HT1F agonists for the treatment of migraine” (Eli Lilly and Company, priority 1994, dated 1996) come the findings set out here.

Structures are written as SMILES. pKi: −log10 of the molar value. Counter-ions that a name gives are not always drawn.

This assay deals with T1, 5-HT1F receptor (Homo sapiens, UniProt P30939).
T1 sequence (P30939 1-366): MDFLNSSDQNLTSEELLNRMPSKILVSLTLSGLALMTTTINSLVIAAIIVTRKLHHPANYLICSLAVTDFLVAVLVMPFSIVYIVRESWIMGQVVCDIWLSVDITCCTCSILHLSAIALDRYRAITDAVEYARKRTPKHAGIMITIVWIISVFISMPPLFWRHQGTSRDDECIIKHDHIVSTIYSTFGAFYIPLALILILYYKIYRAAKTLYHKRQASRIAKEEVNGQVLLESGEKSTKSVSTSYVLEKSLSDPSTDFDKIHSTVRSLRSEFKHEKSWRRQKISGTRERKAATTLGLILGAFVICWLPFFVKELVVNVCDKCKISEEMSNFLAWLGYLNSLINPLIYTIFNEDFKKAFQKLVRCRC
Kind of assay: biochemical. The settings on record: Table I; displacement of 4.5-5.5 nM [3H]5-HT, 37° C., 30 minutes; read-out: 5-HT1F BINDING Ki.
On to `Clc1ccc2[nH]cc(C3CCN(CCc4cnn(C5CCCCC5)c4)CC3)c2c1` [Example 18], for which the pKi was 7.47. The same measure for `Brc1ccc2[nH]cc(C3CCN(CCc4cnn(C5CCCCC5)c4)CC3)c2c1` [Example 19]: 7.31; for `Fc1ccc2[nH]cc(C3CCN(CCc4cnn(CC5CC5)c4)CC3)c2c1` [Example 20, 5-fluoro-3-<1-<2-<1-cyclopropylmethyl-1H-pyrazol-4-yl>ethyl>-4-piperidinyl>-1H-indole hydrochloride]: 8.05. The same measure for `Clc1ccc2[nH]cc(C3CCN(CCc4cnn(CC5CC5)c4)CC3)c2c1` [Example 21, 5-chloro-3-<1-<2-<1-cyclopropylmethyl-1H-pyrazol-4-yl>ethyl>-4-piperidinyl>-1H-indole hydrochloride]: 7.84. The same measure for `Fc1ccc2[nH]cc(C3CCN(CCc4cnn(Cc5ccccc5)c4)CC3)c2c1` [Example 22, 5-fluoro-3-<1-<2-<1-benzyl-1H-pyrazol-4-yl>ethyl>-4-piperidinyl>-1H-indolehydrochloride]: 7.28; for `c1ccc(-n2cc(CCN3CCC(c4c[nH]c5ccccc45)CC3)cn2)cc1` [Example 23, 3-<1-<2-<1-phenyl-1H-pyrazol-4-yl>ethyl>-4-piperidinyl>-1H-indolehydrochloride]: 8.37; for `Fc1ccc2[nH]cc(C3CCN(CCc4cnn(-c5ccccc5)c4)CC3)c2c1` [Example 24, 5-fluoro-3-<1-<2-<1-phenyl-1H-pyrazol-4-yl>ethyl>-4-piperidinyl>-1H-indoleoxalate]: 8.26. Regarding `Clc1ccc2[nH]cc(C3CCN(CCc4cnn(-c5ccccc5)c4)CC3)c2c1` [Example 25, 5-chloro-3-<1-<2-<1-phenyl-1H-pyrazol-4-yl>ethyl>-4-piperidinyl>-1H-indoleoxalate], the pKi was 8.16.

Regarding `Brc1ccc2[nH]cc(C3CCN(CCc4cnn(-c5ccccc5)c4)CC3)c2c1` [Example 26, 5-bromo-3-<1-<2-<1-phenyl-1H-pyrazol-4-yl>ethyl>-4-piperidinyl>-1H-indoleoxalate], the pKi is 7.86.

On to `COc1ccc2[nH]cc(C3CCN(CCc4cnn(-c5ccccc5)c4)CC3)c2c1` [Example 27, 5-methoxy-3-<1-<2-<1-phenyl-1H-pyrazol-4-yl>ethyl>-4-piperidinyl>-1H-indoleoxalate], for which the pKi was 8.02. With `NC(=O)c1ccc2[nH]cc(C3CCN(CCc4cnn(-c5ccccc5)c4)CC3)c2c1` [Example 28, 5-carboxamido-3-<1-<2-<1-phenyl-1H-pyrazol-4-yl>ethyl>-4-piperidinyl>-1H-indole] the figure was 7.62; with `Fc1ccccc1-n1cc(CCN2CCC(c3c[nH]c4ccc(Cl)cc34)CC2)cn1` [Example 29, 5-chloro-3-<1-<2-<1-(2-fluorophenyl)-1H-pyrazol-4-yl>ethyl>-4-piperidinyl>- 1H-indole], 7.98; with `Fc1cccc(-n2cc(CCN3CCC(c4c[nH]c5ccc(Cl)cc45)CC3)cn2)c1` [Example 30, 5-chloro-3-<1-<2-<1-(3-fluorophenyl)-1H-pyrazol-4-yl>ethyl>-4-piperidinyl>- 1H-indole oxalate], 7.29. With `Fc1ccc(-n2cc(CCN3CCC(c4c[nH]c5ccc(Cl)cc45)CC3)cn2)cc1` [Example 31, 5-chloro-3-<1-<2-<1-(4-fluorophenyl)-1H-pyrazol-4-yl>ethyl>-4-piperidinyl>- 1H-indole oxalate] the figure was 7.94. With `Clc1ccc2[nH]cc(C3CCN(CCc4cnn(-c5ccccc5Cl)c4)CC3)c2c1` [Example 32, 5-chloro-3-<1-<2-<1-(2-chlorophenyl)-1H-pyrazol-4-yl>ethyl>-4-piperidinyl>- 1H-indole oxalate] the figure was 7.36; with `Clc1cccc(-n2cc(CCN3CCC(c4c[nH]c5ccc(Cl)cc45)CC3)cn2)c1` [Example 33, 5-chloro-3-<1-<2-<1-(3-chlorophenyl)-1H-pyrazol-4-yl>ethyl>-4-piperidinyl>- 1H-indole oxalate], 7.07.

As a reminder, the pKi is the negative decadic logarithm of the Ki, by convention in mol/L.
